Results from US10457675B2, “Histone deacetylase inhibitors and compositions and methods of use thereof” (CHDI Foundation, Inc., priority 2014, dated 2019).

Columns and labels:
[1] = biological target: Histone Deacetylase 4 (HDAC4) catalytic domain (Homo sapiens (Human), UniProt P56524); assay: Biochemical IC50: HDAC enzymatic activity with fluorogenic substrate Boc-Lys(Tfa)-AMC
Description: The potency of compounds is quantified by measuring the Histone Deacetylase 4 (HDAC4) catalytic domain enzymatic activity using the fluorogenic substrate, Boc-Lys(Tfa)-AMC. The substrate is deacetylated to Boc-Lys-AMC by HDAC4. Cleavage by trypsin results in the release of the fluorophore AMC from the deacetylated substrate. The fluorescence of the sample is directly related to the histone deacetylase activity in the sample.
Stocks of 60 μL aliquots of the 10 mM compound in DMSO are prepared and stored at −20° C. From one stock aliquot of each compound to be tested and the reference compound, a 16-point serial dilution is prepared according to Table 1 using a 125 μL 16-channel Matrix multi-channel pipette (Matrix Technologies Ltd).
2 μL (200×) of each diluted solution and each control (full activity: 100% DMSO alone or full inhibition 1 mM) is stamped into V-bottomed polypropylene 384-well compound plates using either the Bravo (384-well head from Agilent) or 12.5 μL 16-channel Matrix multi-channel pipette (Matrix Technologies Ltd). […]
5 μL of each solution of 1:20 diluted compound from above is transferred to a clear bottomed, black, 384-well assay plate using the Bravo or the Janus (384-well MDT head from Perkin Elmer). […] Finally, the fluorescence is measured (Excitation: 355 nm, Emission: 460 nm) using PerkinElmer EnVision in top read mode.

[2] = tested on: cellular histone deacetylase enzymatic activity in Jurkat E6-1 cells; assay: Cell (Lys-TFA): cellular HDAC activity in Jurkat E6-1 cells with Boc-Lys(Tfa)-AMC; type: cell-based; details: Boc-Lys(Tfa)-AMC substrate
Description: The potency of the compounds is quantified by measuring the cellular histone deacetylase enzymatic activity using the fluorogenic substrate, Boc-Lys(Tfa)-AMC. After penetration in Jurkat E6-1 cells, the substrate is deacetylated to Boc-Lys-AMC. After cell lysis and cleavage by trypsin, the fluorophore AMC is released from the deacetylated substrate only. The fluorescence of the sample is directly related to the histone deacetylase activity in the sample.
Jurkat E6.1 cells are cultured according to standard cell culture protocols in Jurkat E6.1 Growth Media (RPMI without phenol red, 10% FBS, 10 mM HEPES, and 1 mM Sodium Pyruvate). Jurkat E6.1 cells are counted using a Coulter Counter and resuspended in Jurkat E6.1 growth media at a concentration of 75,000 cells/35 μL. 35 μL or 75,000 cells is seeded into Greiner microtitre assay plates. The plates are then incubated at 37° C. and 5% CO2 while other assay components are being prepared.
Stocks of 70 μL aliquots of the 10 mM compound in DMSO are prepared and stored at −20° C. […]
5 μL of each solution of 1:20 diluted compound from above is transferred to the Greiner microtitre assay plates with 75,000 cells/well using the Bravo. […] Finally the top read fluorescence (Excitation: 355 nm, Emission: 460 nm) is measured using PerkinElmer EnVision.

[3] = tested on: cellular HDAC activity (Lys-Ac); assay: Cell (Lys-Ac): cellular HDAC activity; type: cell-based

Sequence of Histone Deacetylase 4 (HDAC4) catalytic domain (P56524 648-1032): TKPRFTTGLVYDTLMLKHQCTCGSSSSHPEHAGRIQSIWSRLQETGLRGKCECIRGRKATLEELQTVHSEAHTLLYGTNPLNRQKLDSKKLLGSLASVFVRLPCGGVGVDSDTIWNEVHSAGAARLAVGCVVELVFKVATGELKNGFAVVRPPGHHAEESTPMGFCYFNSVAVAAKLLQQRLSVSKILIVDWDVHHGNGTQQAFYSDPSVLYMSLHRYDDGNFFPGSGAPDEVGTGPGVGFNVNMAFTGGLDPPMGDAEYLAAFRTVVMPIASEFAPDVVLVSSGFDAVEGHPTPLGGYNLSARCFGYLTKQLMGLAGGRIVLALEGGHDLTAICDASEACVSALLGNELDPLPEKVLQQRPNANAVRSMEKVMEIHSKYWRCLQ

Compound | IC50 [1] | IC50 [2] | IC50 [3]
5-(3-Fluoro-2-methylphenyl)-1-(4-fluorobenzyl)-N-hydroxy-4,5,6,7-tetrahydro-1H-indazole-5-carboxamide and 5-(3-fluoro-2-methylphenyl)-2-(4-fluorobenzyl)-N-hydroxy-4,5,6,7-tetrahydro-2H-indazole-5-carboxamide [Example 36] | 600 nM | 370 nM | > 50 µM
Cc1c(F)cccc1C1(C(=O)NO)CCc2nc(C3CC3)ncc21 (stereo in doubt) [Example 57, (R)-2-Cyclopropyl-5-(3-fluoro-2-methylphenyl)-N-hydroxy-6,7-dihydro-5H-cyclopenta[d]pyrimidine-5-carboxamide] |  |  | > 50 µM
5-(3-Fluoro-2-methylphenyl)-N-hydroxy-1-(2,2,2-trifluoroethyl)-4,5,6,7-tetrahydro-1H-indazole-5-carboxamide and 5-(3-fluoro-2-methylphenyl)-N-hydroxy-2-(2,2,2-trifluoroethyl)-4,5,6,7-tetrahydro-2H-indazole-5-carboxamide [Example 35] |  | 770 nM | > 50 µM
